Results as given in patent US10213392B2, “Pharmaceutical composition for use in medical and veterinary ophthalmology” (Mitotech SA, priority 2009, dated 2019).
“Also recorded” adds a separate entry of the source.

What was measured:
[1] = Stability of SkQ1 in solutions containing benzalkonium chloride (storage 24 hours at room temperature, HPLC-MS/MS); type: physicochemical; details: for Determined concentration of SkQ1 in 24 hours: 10 mM sodium phosphate pH 6.5, 0.9% NaCl
Description: (§1) Materials and Method for Quantitative Detection of SkQ1
(§2) Analysis is carried out by high-performance liquid chromatography with MS/MS detection.
(§3) 100 μL of the internal standard solution is placed into a 10 ml flask, 5 ml of the water-ethanol solution is added and stirred for 11 min. 500 μL of sample solution is added to 0.1 ml of a 0.5 M solution of 3-chloroperbenzoic acid in ethanol, and the volume is adjusted to the mark with ethanol-water solution and stirred for 30 min. 1 ml of the resulting solution is transferred into a chromatographic vial.
(§4) The chromatographic conditions are as follows: The device used is a Waters ACQUITY UPLC®. The column used is steel, 2.1×50 mm, filled with sorbent Acquity BEH C18, 1.7 μm (Waters, P/N 186002350) or equivalent. The column temperature is 35° C. The mobile phase is eluent A: 20 mM solution of formic acid in 5% aqueous acetonitrile and eluent B: 20 mM solution of formic acid in aqueous acetonitrile. The flow rate is 0.5 ml/min. The volume of injection is the total loop (about 11 μL). The elution mode is a gradient of eluents A and B according to Table 4.
(§5) The time of the analysis is about 5 min. The detector is a Waters TQD (tri-quadrupole) for MS/MS.
(§6) The conditions of detection is as follows: The electrospraying mode is positive (ES+). The working mode is monitoring of reactions of settled ions (MRM). The temperature of the ion source is 120° C. The vaporization temperature is 450° C. The cone voltage is 55 V. The capillary voltage is 3.0 kV. The collision gas (CID) is argon. The collision gas flow rate is 0.18 ml/min. The collision gas pressure (CID) is 4.5×10^−3 mbar. The transitions of scans and collision energy are according to Table 5.
(§7) The SkQ1 content in the product (μg/ml) was calculated using the equation:
(§8) [formula] • “S/Ssmpl” is the ratio of peak areas and SkQ1 and SkQ1-d15 in chromatograms of the sample solution; • “S/Sstd” is the ratio of SkQ1 and SkQ1-d15 peak areas in chromatograms of the SS solution; • “a” is the amount of SkQ1 taken to prepare the original standard solution, in mgs; • “W” is the water content and organic solvents in SkQ1 substance taken to prepare the original standard solution, in percent; and • “P” is the SkQ1 content in SkQ1 substance taken to prepare the original standard solution, in percent.

[2] = Stability of SkQ1 in solutions with different prolongators (storage 50 days at room temperature, HPLC-MS/MS); type: physicochemical; details: for Relative content of SkQ1 after incubation for 50 days: 10 mM sodium phosphate pH 6.5, 0.9% NaCl, 0.01% benzalkonium chloride, room temperature
Description: as §1, §2, §3, §4, §5, §6, §7, §8

Br.CC1=C(C)C(=O)C(CCCCCCCCCC[P+](c2ccccc2)(c2ccccc2)c2ccccc2)=CC1=O [SkQ1]
Decrease of the concentration of SkQ1 ([1]; absence of benzalkonium chloride, 24 hours): 58%
Decrease of SkQ1 concentration during storage (in words) ([1]; addition of 0.01% benzalkonium chloride, SkQ1 up to 250 nM, 24 hours): completely prevented; also recorded: prevents a decrease in the concentration
Determined concentration of SkQ1 in 24 hours ([1]; benzalkonium chloride 0 (control) %, added SkQ1 250 nM): 104 nM
Relative content of SkQ1 ([1]; benzalkonium chloride 0 (control) %, added SkQ1 250 nM, 24 hours): 42%
Determined concentration of SkQ1 in 24 hours ([1]; benzalkonium chloride 0.01%, added SkQ1 50 nM): 56 nM
Relative content of SkQ1 ([1]; benzalkonium chloride 0.01%, added SkQ1 50 nM, 24 hours): 112%
Determined concentration of SkQ1 in 24 hours ([1]; benzalkonium chloride 0.01%, added SkQ1 100 nM): 97 nM
Relative content of SkQ1 ([1]; benzalkonium chloride 0.01%, added SkQ1 100 nM, 24 hours): 97%
Determined concentration of SkQ1 in 24 hours ([1]; benzalkonium chloride 0.01%, added SkQ1 180 nM): 180 nM
Relative content of SkQ1 ([1]; benzalkonium chloride 0.01%, added SkQ1 180 nM, 24 hours): 100%
Determined concentration of SkQ1 in 24 hours ([1]; benzalkonium chloride 0.01%, added SkQ1 250 nM): 254 nM
Relative content of SkQ1 ([1]; benzalkonium chloride 0.01%, added SkQ1 250 nM, 24 hours): 102%
Relative content of SkQ1 after incubation for 50 days ([2]; 0.2% HPMC): 93%
Effect of prolongator on SkQ1 concentration during storage (in words) ([2]; 0.2% HPMC, 50 days at room temperature): stabilizes the concentration
Relative content of SkQ1 after incubation for 50 days ([2]; 0.2% MC): 79%
Relative content of SkQ1 after incubation for 50 days ([2]; control (no prolongator)): 83%
